The record followed here is PubChem BioAssay (NCI).

Among the test systems are HCT-15 colon; NCI-H226 lung; NCI-H23 lung; NCI-H460 lung; NCI/ADR-RES ovarian; OVCAR-4 ovarian; OVCAR-5 ovarian; SF-268 CNS; TK-10 renal; UO-31 renal.
What all share (test): NCI-60 cell line screen, 48 h

The structures appear in SMILES notation. Where “and” joins values, the source holds several entries; their conditions need not be identical. Equal entries are not always repeated.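 How tested: cells in 96-well plates exposed to compound for 48 hours at five concentrations. The concentration for 50% growth inhibition is given as GI50. The concentration for full growth arrest is given as TGI.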

Turning to `COc1cc(CCc2cc(NC(=O)c3ccc(N4C[C@@H](C)N[C@@H](C)C4)cc3)n[nH]2)cc(OC)c1`, the GI50 in the test on HCT-15 colon is > 10 µM and 9.71 µM; in the test with NCI-H23 lung, > 10 µM and 3.98 µM; in the test with NCI-H460 lung it was 6.39 µM and 4.16 µM; with NCI/ADR-RES ovarian it was > 10 µM and 17.1 µM; in the test with OVCAR-4 ovarian, > 10 µM and 3.73 µM; in the test with OVCAR-5 ovarian, > 10 µM and 5.01 µM. For the same compound, the GI50 is > 10 µM and 5.88 µM with SF-268 CNS; > 10 µM and 10.4 µM in the test with TK-10 renal; 2.84 µM and 2.7 µM with UO-31 renal. Moreover, the TGI with HCT-15 colon was > 10 µM and 23.6 µM; in the test with NCI-H226 lung, > 10 µM and 21.3 µM; with NCI-H23 lung, > 10 µM and 17.3 µM; in the test on NCI-H460 lung it was > 10 µM and 14.8 µM; in the test on NCI/ADR-RES ovarian, > 10 µM and 36.8 µM; with OVCAR-4 ovarian it was > 10 µM and 18.5 µM. Besides, the TGI with OVCAR-5 ovarian was > 10 µM and 16.9 µM; in the test with SF-268 CNS it was > 10 µM and 20.7 µM; in the test with TK-10 renal it was > 10 µM and 23.6 µM; in the test on UO-31 renal it was > 10 µM and 13.9 µM.
`CCCCCCCCCCCCCCCCCCNC(=O)[C@H]1CSC(c2ccc(OC)c(F)c2)N1` (some centres undefined): the GI50 is above 37.1 µM in the test on HCT-15 colon; 2.28 µM in the test with NCI-H226 lung; 7.22 µM in the test with NCI-H23 lung; 0.606 µM in the test on NCI-H460 lung; 2.52 µM in the test on NCI/ADR-RES ovarian; 14 µM in the test on OVCAR-4 ovarian. Besides, the GI50 is 3.55 µM with OVCAR-5 ovarian, 1.73 µM in the test with SF-268 CNS, 28.3 µM in the test on TK-10 renal and above 32.8 µM with UO-31 renal. In addition, the TGI in the test on HCT-15 colon is above 53.1 µM; in the test with NCI-H226 lung, 6.86 µM; with NCI-H23 lung, 27 µM; in the test with NCI-H460 lung it was 2.02 µM; in the test on NCI/ADR-RES ovarian, 6.22 µM; in the test on OVCAR-4 ovarian, above 41.3 µM. Further, the TGI in the test with OVCAR-5 ovarian was above 33.4 µM; with SF-268 CNS it was 4.14 µM; in the test with TK-10 renal it was above 57.7 µM; in the test on UO-31 renal, above 48.4 µM.
Turning to `O=C(CCCc1c[nH]c2ccccc12)NC1CC(=O)c2c(Br)sc(Br)c21` (centres undefined), the GI50 with HCT-15 colon is 3.51 µM; in the test on NCI-H226 lung it was 19.6 µM; in the test with NCI-H23 lung, 12.2 µM; in the test with NCI-H460 lung, 19.2 µM; in the test with NCI/ADR-RES ovarian it was 23.3 µM; with OVCAR-4 ovarian it was 12.8 µM. In addition, the GI50 was 16 µM with OVCAR-5 ovarian, 10.5 µM with SF-268 CNS, 26 µM in the test with TK-10 renal and 22.2 µM in the test with UO-31 renal. The TGI came out at 10.9 µM in the test on HCT-15 colon; 35.5 µM in the test on NCI-H226 lung; 26.1 µM in the test with NCI-H23 lung; 38.7 µM in the test with NCI-H460 lung; 70.3 µM in the test on NCI/ADR-RES ovarian; 25.9 µM in the test with OVCAR-4 ovarian. Besides, the TGI in the test with OVCAR-5 ovarian is 31.7 µM; with SF-268 CNS, 27.1 µM; in the test with TK-10 renal, above 100 µM; in the test with UO-31 renal it was 63.1 µM.
For the compound `COc1cc(C(=O)O)c([N+](=O)[O-])c(OC)c1OC`, the TGI with HCT-15 colon, with NCI-H226 lung, in the test on NCI-H23 lung, with NCI-H460 lung, in the test on NCI/ADR-RES ovarian and with OVCAR-4 ovarian was above 100 µM each time. Also, the TGI in the test on OVCAR-5 ovarian, with SF-268 CNS, in the test on TK-10 renal and in the test with UO-31 renal was above 100 µM each time.
Consider `O=C(c1cccs1)c1c(C(F)(F)F)n([O-])c2ccc(C(F)(F)F)cc2[n+]1=O`, for which the GI50 in the test on HCT-15 colon is 0.286 µM; in the test on NCI-H226 lung it was 0.524 µM; in the test with NCI-H23 lung, 0.353 µM; in the test on NCI-H460 lung it was 0.205 µM; with NCI/ADR-RES ovarian, 0.219 µM; with OVCAR-4 ovarian, 0.224 µM. The GI50 was 0.205 µM in the test on OVCAR-5 ovarian, 0.182 µM with SF-268 CNS, 0.596 µM in the test on TK-10 renal and 0.169 µM with UO-31 renal. In addition, the TGI in the test with HCT-15 colon stood at 0.73 µM; in the test on NCI-H226 lung it was 1.42 µM; with NCI-H23 lung, 1 µM; in the test on NCI-H460 lung it was 0.407 µM; in the test with NCI/ADR-RES ovarian, 0.573 µM; in the test on OVCAR-4 ovarian, 0.531 µM. Further, the TGI was 0.494 µM in the test on OVCAR-5 ovarian, 0.355 µM in the test with SF-268 CNS, 1.31 µM with TK-10 renal and 0.318 µM with UO-31 renal.
For `COc1cccc(NC(=O)c2sc3nc4c(cc3c2N)CCCC4)c1`, the GI50 in the test with HCT-15 colon was 0.387 µM; in the test with NCI-H226 lung, 2.6 µM; in the test on NCI-H23 lung, 0.813 µM; with NCI-H460 lung, 0.474 µM; in the test with NCI/ADR-RES ovarian, 0.485 µM; with OVCAR-4 ovarian, 0.998 µM. The GI50 in the test with OVCAR-5 ovarian is 3.31 µM; in the test with SF-268 CNS, 0.714 µM; with TK-10 renal it was 2.97 µM; in the test with UO-31 renal it was 0.859 µM. For the same compound, the TGI in the test with HCT-15 colon is above 100 µM; in the test with NCI-H226 lung, 43.8 µM; in the test with NCI-H23 lung it was above 100 µM; in the test on NCI-H460 lung, above 100 µM; in the test on NCI/ADR-RES ovarian, above 100 µM; with OVCAR-4 ovarian, 39.9 µM. Besides, the TGI in the test on OVCAR-5 ovarian is above 100 µM; in the test on SF-268 CNS, 37 µM; in the test on TK-10 renal it was 34 µM; in the test on UO-31 renal it was above 100 µM.
Take `Cc1ccc(S(=O)(=O)N/N=C/C(Br)=C(/Br)C(=O)O)cc1`: the TGI with HCT-15 colon came out at 8.67 µM; in the test with NCI-H226 lung it was 27.9 µM; with NCI-H23 lung it was 15.2 µM; in the test on NCI-H460 lung it was 44.4 µM; in the test with NCI/ADR-RES ovarian, 17.9 µM; in the test on OVCAR-4 ovarian, 19.7 µM. Also, the TGI in the test on OVCAR-5 ovarian is above 55.5 µM; in the test on SF-268 CNS, 30.2 µM; with TK-10 renal it was 22.9 µM; in the test with UO-31 renal, 20 µM.
Take `COc1cc(O)c(C(=O)/C=C/c2ccccc2)c(OC)c1`: the TGI in the test with HCT-15 colon was 16.7 µM; with NCI-H226 lung, 12.8 µM; in the test with NCI-H23 lung, 19.4 µM; with NCI-H460 lung it was 13.3 µM; in the test with NCI/ADR-RES ovarian it was 14.4 µM; in the test with OVCAR-4 ovarian it was 26.8 µM. Moreover, the TGI with OVCAR-5 ovarian was above 100 µM; with SF-268 CNS, 20.8 µM; in the test on TK-10 renal, 19.7 µM; in the test with UO-31 renal it was 17.6 µM.
